Active and inactive are the calls of the source. The rule behind the calls is not given here.
Columns and labels:
[1] = system: Mycobacterium tuberculosis; assay: Antimycobacterial activity against Mycobacterium tuberculosis H37Rv ACTT 25618 assessed as inhibition of visible growth incubated for 7 days by micro plate alamar blue assay; type: functional; conditions: H37Rv ACTT 25618, 168 h, time 7 day
[2] = Metabolic stability in human liver microsomes assessed as clearance in presence of NADPH by LC/MS analysis; type: ADME, Microsome; conditions: read-out: CLH
[3] = Metabolic stability in human liver microsomes assessed as half life in presence of NADPH by LC/MS analysis; type: ADME, Microsome
[4] = molecular target: T1, Decaprenylphosphoryl-beta-D-ribose oxidase (Mycobacterium tuberculosis (strain ATCC 25618 / H37Rv), UniProt P9WJF1); assay: Inhibition of Mycobacterium tuberculosis recombinant DprE1 expressed in Escherichia coli assessed as formation of resorufin using FPR as substrate by Amplex Red […] coupled assay
T1 sequence (P9WJF1 whole entry): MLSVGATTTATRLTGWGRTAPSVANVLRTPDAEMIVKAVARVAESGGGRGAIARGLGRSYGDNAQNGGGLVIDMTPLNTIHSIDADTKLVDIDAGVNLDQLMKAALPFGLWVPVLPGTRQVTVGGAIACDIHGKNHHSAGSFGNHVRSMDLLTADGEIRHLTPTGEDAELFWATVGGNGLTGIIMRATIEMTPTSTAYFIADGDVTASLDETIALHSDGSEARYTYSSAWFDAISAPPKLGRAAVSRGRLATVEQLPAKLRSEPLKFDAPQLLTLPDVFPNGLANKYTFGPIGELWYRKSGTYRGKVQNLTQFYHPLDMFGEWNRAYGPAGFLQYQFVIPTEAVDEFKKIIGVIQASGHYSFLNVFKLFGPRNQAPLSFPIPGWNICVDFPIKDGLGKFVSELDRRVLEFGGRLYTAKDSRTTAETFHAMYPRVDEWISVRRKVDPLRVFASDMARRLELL

[5] = system: HepG2; assay: Cytotoxicity against human HepG2 cells assessed as cell viability incubated for 48 hrs by CCK-8 assay; type: cell-based; conditions: hepg2, 48 h
[6] = molecular target: T2, Decaprenylphosphoryl-beta-D-ribose oxidase (Mycobacterium tuberculosis (strain ATCC 25618 / H37Rv)) (UniProt P9WJF1); assay: Inhibition of Mycobacterium tuberculosis H37Rv DprE1 assessed as increase in trehalose monomycolates accumulation at 100 x MIC incubated for 24 hrs using [14C]acetate by TLC based metabolic labelling assay
T2 sequence (whole entry): T1 sequence (P9WJF1 whole entry)

[7] = molecular target: T2, Decaprenylphosphoryl-beta-D-ribose oxidase (Mycobacterium tuberculosis (strain ATCC 25618 / H37Rv)); assay: Inhibition of Mycobacterium tuberculosis H37Rv DprE1 assessed as increase in trehalose dimycolates accumulation at 100 x MIC incubated for 24 hrs using [14C]acetate by TLC based metabolic labelling assay

Row | Compound | MIC [1] | further results
1 | CN(Cc1nnc(-c2cccc(F)c2)o1)c1nc(=O)c2cc(S(C)(=O)=O)cc([N+](=O)[O-])c2s1 | 0.049 µM | –
2 | CN(Cc1cn(-c2cccc(C(F)(F)F)c2)nn1)c1nc(=O)c2cc(S(C)(=O)=O)cc([N+](=O)[O-])c2s1 | 0.044 µM | –
3 | CN(Cc1nnc(-c2ccc(F)c(F)c2)o1)c1nc(=O)c2cc(S(C)(=O)=O)cc([N+](=O)[O-])c2s1 | 0.043 µM | –
4 | CS(=O)(=O)c1cc([N+](=O)[O-])c2sc(N3CCN(CC4CCCCC4)CC3)nc(=O)c2c1 | – | CLint scaled [2]: 89.8 mL/min/kg; half-life [3]: 25.8 min
5 | CN(Cc1coc(-c2ccccc2)n1)c1nc(=O)c2cc(S(C)(=O)=O)cc([N+](=O)[O-])c2s1 | 0.021 µM | IC50 [4]: 0.94 µM; CLint scaled [2]: 82.7 mL/min/kg; half-life [3]: 21 min
6 | COc1cccc(-n2cc(CN(C)c3nc(=O)c4cc(S(C)(=O)=O)cc([N+](=O)[O-])c4s3)nn2)c1 | 0.199 µM | –
7 | CN(Cc1nnc(-c2ccc(F)c(F)c2)s1)c1nc(=O)c2cc(S(C)(=O)=O)cc([N+](=O)[O-])c2s1 | 0.031 µM | –
8 | CN(Cc1nnc(-c2ccccc2)o1)c1nc(=O)c2cc(S(C)(=O)=O)cc([N+](=O)[O-])c2s1 | 0.03 µM | Activity [5]: Non-Toxic; IC50 [4]: 2.1 µM; CLint scaled [2]: 37.8 mL/min/kg; half-life [3]: 45.9 min; Activity [6]: Active; Activity [7]: Active
9 | CN(Cc1csc(-c2ccc(F)cc2)n1)c1nc(=O)c2cc(S(C)(=O)=O)cc([N+](=O)[O-])c2s1 | 0.057 µM | –
10 | CC(C)S(=O)(=O)c1cc([N+](=O)[O-])c2sc(N3CCN(CC4CCCCC4)CC3)nc(=O)c2c1 | < 0.001 µM | –
11 | CN(Cc1cn(-c2cccc(F)c2)nn1)c1nc(=O)c2cc(S(C)(=O)=O)cc([N+](=O)[O-])c2s1 | 0.014 µM | –
12 | CN(Cc1cn(C2CCCCC2)nn1)c1nc(=O)c2cc(S(C)(=O)=O)cc([N+](=O)[O-])c2s1 | 0.047 µM | –
13 | CN(Cc1cn(-c2cccc(I)c2)nn1)c1nc(=O)c2cc(S(C)(=O)=O)cc([N+](=O)[O-])c2s1 | 0.055 µM | –
14 | Cc1cccc(-n2cc(CN(C)c3nc(=O)c4cc(S(C)(=O)=O)cc([N+](=O)[O-])c4s3)nn2)c1 | 0.1 µM | –
15 | CN(Cc1cn(-c2cccnc2)nn1)c1nc(=O)c2cc(S(C)(=O)=O)cc([N+](=O)[O-])c2s1 | 0.533 µM | –
16 | CN(Cc1cn(-c2cnoc2)nn1)c1nc(=O)c2cc(S(C)(=O)=O)cc([N+](=O)[O-])c2s1 | 0.065 µM | –
17 | CN(Cc1nnc(-c2ccc(F)cc2F)o1)c1nc(=O)c2cc(S(C)(=O)=O)cc([N+](=O)[O-])c2s1 | 0.045 µM | –
18 | CN(Cc1nnc(-c2cccc(F)c2)s1)c1nc(=O)c2cc(S(C)(=O)=O)cc([N+](=O)[O-])c2s1 | 0.045 µM | –
19 | CN(Cc1nnc(-c2cc(F)cc(F)c2)o1)c1nc(=O)c2cc(S(C)(=O)=O)cc([N+](=O)[O-])c2s1 | 0.022 µM | –
20 | CN(Cc1csc(-c2ccccc2)n1)c1nc(=O)c2cc(S(C)(=O)=O)cc([N+](=O)[O-])c2s1 | 0.023 µM | CLint scaled [2]: 107 mL/min/kg; half-life [3]: 16.2 min
21 | CN(Cc1cn(-c2cccc(Cl)c2)nn1)c1nc(=O)c2cc(S(C)(=O)=O)cc([N+](=O)[O-])c2s1 | 0.089 µM | –
22 | CN(Cc1csc(-c2cccc(F)c2)n1)c1nc(=O)c2cc(S(C)(=O)=O)cc([N+](=O)[O-])c2s1 | 0.024 µM | –
23 | CN(Cc1nnc(-c2ccc(F)cc2F)s1)c1nc(=O)c2cc(S(C)(=O)=O)cc([N+](=O)[O-])c2s1 | 0.023 µM | –
24 | CN(Cc1cn(-c2c(F)cccc2F)nn1)c1nc(=O)c2cc(S(C)(=O)=O)cc([N+](=O)[O-])c2s1 | 0.28 µM | –
25 | CN(Cc1cn(-c2ccccc2F)nn1)c1nc(=O)c2cc(S(C)(=O)=O)cc([N+](=O)[O-])c2s1 | 0.031 µM | –
26 | CN(Cc1cn(-c2ccc(F)cc2F)nn1)c1nc(=O)c2cc(S(C)(=O)=O)cc([N+](=O)[O-])c2s1 | 0.024 µM | –

Row | Compound | MIC [1] | further results
27 | CN(Cc1cn(-c2cccc(Br)c2)nn1)c1nc(=O)c2cc(S(C)(=O)=O)cc([N+](=O)[O-])c2s1 | 0.044 µM | –
28 | CN(Cc1nnc(-c2ccc(F)cc2)o1)c1nc(=O)c2cc(S(C)(=O)=O)cc([N+](=O)[O-])c2s1 | 0.061 µM | –
29 | CN(Cc1nnc(-c2ccc(F)cc2)s1)c1nc(=O)c2cc(S(C)(=O)=O)cc([N+](=O)[O-])c2s1 | 0.047 µM | –
30 | CCS(=O)(=O)c1cc([N+](=O)[O-])c2sc(N3CCN(CC4CCCCC4)CC3)nc(=O)c2c1 | < 0.001 µM | –
31 | CN(Cc1ccc2c(c1)OCCO2)c1nc(=O)c2cc(S(C)(=O)=O)cc([N+](=O)[O-])c2s1 | 0.066 µM | –
32 | CN(Cc1coc(-c2ccc(F)cc2)n1)c1nc(=O)c2cc(S(C)(=O)=O)cc([N+](=O)[O-])c2s1 | 0.031 µM | –
33 | CN(Cc1cn(-c2cccc(C#N)c2)nn1)c1nc(=O)c2cc(S(C)(=O)=O)cc([N+](=O)[O-])c2s1 | 0.048 µM | –
34 | C[C@@H](c1cn(-c2ccccc2)nn1)N(C)c1nc(=O)c2cc(S(C)(=O)=O)cc([N+](=O)[O-])c2s1 | 0.252 µM | –
35 | CN(Cc1cn(-c2ccc(F)cc2)nn1)c1nc(=O)c2cc(S(C)(=O)=O)cc([N+](=O)[O-])c2s1 | 0.024 µM | –
36 | CN(CCN(C)c1nc(=O)c2cc(S(C)(=O)=O)cc([N+](=O)[O-])c2s1)CC1CCCCC1 | 0.148 µM | –
37 | CN(Cc1cn(-c2ccccc2)nn1)c1nc(=O)c2cc(S(C)(=O)=O)cc([N+](=O)[O-])c2s1 | 0.0006 µM | Activity [5]: Non-Toxic; IC50 [4]: 0.78 µM; CLint scaled [2]: 32.4 mL/min/kg; half-life [3]: 53.7 min; Activity [6]: Active; Activity [7]: Active
38 | C[C@H](c1cn(-c2ccccc2)nn1)N(C)c1nc(=O)c2cc(S(C)(=O)=O)cc([N+](=O)[O-])c2s1 | > 4.2 µM | –
39 | CN(Cc1nnc(-c2ccccc2)s1)c1nc(=O)c2cc(S(C)(=O)=O)cc([N+](=O)[O-])c2s1 | 0.037 µM | CLint scaled [2]: 128 mL/min/kg; half-life [3]: 13.2 min
40 | CN(Cc1cn(Cc2cnoc2)nn1)c1nc(=O)c2cc(S(C)(=O)=O)cc([N+](=O)[O-])c2s1 | > 2 µM | –
41 | CN(c1nc(=O)c2cc(S(C)(=O)=O)cc([N+](=O)[O-])c2s1)C1(c2cn(-c3ccccc3)nn2)CC1 | > 4 µM | –
42 | CN(Cc1cn(-c2cc(F)cc(F)c2)nn1)c1nc(=O)c2cc(S(C)(=O)=O)cc([N+](=O)[O-])c2s1 | 0.022 µM | –
43 | CCN(Cc1cn(-c2ccccc2)nn1)c1nc(=O)c2cc(S(C)(=O)=O)cc([N+](=O)[O-])c2s1 | 0.201 µM | –
44 | CN(Cc1ccccc1)c1nc(=O)c2cc(S(C)(=O)=O)cc([N+](=O)[O-])c2s1 | 0.253 µM | –
45 | CN(Cc1cn(-c2ccc(F)c(F)c2)nn1)c1nc(=O)c2cc(S(C)(=O)=O)cc([N+](=O)[O-])c2s1 | 0.022 µM | –
46 | CN(Cc1coc(C2CCCCC2)n1)c1nc(=O)c2cc(S(C)(=O)=O)cc([N+](=O)[O-])c2s1 | 0.433 µM | –
47 | CN(Cc1cn(Cc2ccccc2)nn1)c1nc(=O)c2cc(S(C)(=O)=O)cc([N+](=O)[O-])c2s1 | 0.309 µM | –
48 | CN(Cc1nnc(-c2cc(F)cc(F)c2)s1)c1nc(=O)c2cc(S(C)(=O)=O)cc([N+](=O)[O-])c2s1 | 0.023 µM | –
49 | Cc1ccc(-n2cc(CN(C)c3nc(=O)c4cc(S(C)(=O)=O)cc([N+](=O)[O-])c4s3)nn2)cc1 | 0.115 µM | –
50 | CN(Cc1cn(-c2cc(F)ccc2F)nn1)c1nc(=O)c2cc(S(C)(=O)=O)cc([N+](=O)[O-])c2s1 | 0.011 µM | –
51 | O=c1nc(N2CCN(CC3CCCCC3)CC2)sc2c([N+](=O)[O-])cc(C(F)(F)F)cc12 [MACOZINONE] | < 0.2 ng/mL | CLint scaled [2]: 22.8 mL/min/kg; half-life [3]: 76.3 min

— ChEMBL document CHEMBL4828770, “Structural and Activity Relationships of 6-Sulfonyl-8-Nitrobenzothiazinones as Antitubercular Agents” (J Med Chem, 2021)
